From ChEMBL document CHEMBL5523719, “Structure-activity relationship study of new carbazole sulfonamide derivatives as anticancer agents with dual-target mechanism” (Eur J Med Chem, 2024) come the findings set out here.

Each structure is given as a SMILES string. Active and inactive are the calls of the source. No cut-off for these calls is given here.

Broadly, the IC50 is the point on the concentration scale where inhibition reaches its midpoint. The low end stands for inhibition by little substance, the high end for a need for much substance.

The subject of one series is HepG2. Kind of series: In vivo antitumor activity against human HepG2 cells xenografted in mouse assessed as inhibition of tumor growth treated at 50 mg/kg, iv every other day for 22 days relative to control. To be noted: HepG2, 528 h, time 22 day, read-out: TGI. It counts as functional. (Xenograft models place foreign cells or tissue in a host animal.)
A short description of series [1]: Toxicity in mouse xenografted with human HepG2 cells assessed as body weight change at 10 to 20 mg/kg, iv every other day for 22 days. It counts as organism-based. To be noted: in vivo, 528 h, dose 10-20 mg/kg, time 22 day.
In another series the test system is MDA-MB-231. In words: Antiproliferation activity against human MDA-MB-231 cells measured after 72 hrs incubation by MTT assay. It counts as functional, cell-based. To be noted: MDA-MB-231, 72 h. For orientation: Formazan colour is commonly taken as a measure of viable cells.
The subject of another series is MIA PaCa-2. Kind of series: Antiproliferation activity against human MIA PaCa-2 cells measured after 72 hrs incubation by MTT assay. It counts as functional, cell-based. To be noted: MIA PaCa-2, 72 h.
The test system of a further series is NCI-H460. In words: Antiproliferation activity against human NCI-H460 cells measured after 72 hrs incubation by MTT assay. It counts as functional, cell-based. To be noted: NCI-H460, 72 h.
The test system of the next series is KB. Kind of series: Antiproliferation activity against human KB cells measured after 72 hrs incubation by MTT assay. It counts as functional, cell-based.
A further series concerns L02. Kind of series: Antiproliferation activity against human L02 cells measured after 72 hrs incubation by MTT assay. It counts as functional, cell-based. To be noted: L02, 72 h.
The test system of series [2] is MCF7. Kind of series: In vivo antitumor activity against human MCF7 cells xenografted in BALB/c mouse assessed as decrease in tumor volume treated at 50 mg/kg, iv every other day for 26 days relative to control. To be noted: MCF7, 624 h, time 26 day. It counts as functional.
For series [3], the system named is MCF7. Kind of series: In vivo antitumor activity against human MCF7 cells xenografted in BALB/c mouse assessed as inhibition of Ki-67 expression treated at 50 mg/kg, iv every other day for 26 days. The class given is functional, organism-based. To be noted: time 26.0 day.
Series [4] deals with MCF7. In words: In vivo antitumor activity against human MCF7 cells xenografted in BALB/c mouse assessed as increase in cleaved caspase-3 treated at 50 mg/kg, iv every other day for 26 days. It counts as functional, organism-based. Conditions: time 26.0 day.
The subject of series [5] is MCF7. Kind of series: In vivo antitumor activity against human MCF7 cells xenografted in BALB/c mouse assessed as inhibition of tumor growth treated iv every other day for 26 days. The class given is functional, organism-based. Conditions: time 26.0 day.
Series [6] has as its system MCF7. In words: In vivo antitumor activity against human MCF7 cells xenografted in BALB/c mouse assessed as decrease in tumor volume treated at 2.5 mg/kg, iv every other day for 26 days relative to control. To be noted: MCF7, 624 h, time 26 day. It counts as functional.
The subject of series [7] is MCF7. In words: In vivo antitumor activity against human MCF7 cells xenografted in BALB/c mouse assessed as decrease in tumor volume treated at 5 mg/kg, iv every other day for 26 days relative to control. It counts as functional. To be noted: MCF7, 624 h, time 26 day.
A short description of series [8]: Toxicity in BALB/c mouse xenografted with human MCF7 cells assessed as lesions in heart at 5 mg/kg, iv every other day for 26 days by H and E staining based assay. It counts as organism-based. To be noted: in vivo, 624 h, time 26 day.
The nature of series [9]: Toxicity in BALB/c mouse xenografted with human MCF7 cells assessed as lesions in liver at 5 mg/kg, iv every other day for 26 days by H and E staining based assay. It counts as organism-based. To be noted: in vivo, 624 h, time 26 day.
Series [10] can be described thus: Toxicity in BALB/c mouse xenografted with human MCF7 cells assessed as lesions in spleen at 5 mg/kg, iv every other day for 26 days by H and E staining based assay. The class given is organism-based. Conditions: in vivo, 624 h, time 26 day.
Series [11] can be described thus: Toxicity in BALB/c mouse xenografted with human MCF7 cells assessed as lesions in lung at 5 mg/kg, iv every other day for 26 days by H and E staining based assay. The class given is organism-based. To be noted: in vivo, 624 h, time 26 day.
A short description of series [12]: Toxicity in BALB/c mouse xenografted with human MCF7 cells assessed as lesions in kidney at 5 mg/kg, iv every other day for 26 days by H and E staining based assay. It counts as organism-based. Conditions: in vivo, 624 h, time 26 day.
Series [13] relates to MCF7. Kind of series: In vivo antitumor activity against human MCF7 cells xenografted in BALB/c mouse assessed as inhibition of Ki-67 expression treated at 5 mg/kg, iv every other day for 26 days. The class given is functional, organism-based. To be noted: time 26.0 day.
Series [14] concerns MCF7. In words: In vivo antitumor activity against human MCF7 cells xenografted in BALB/c mouse assessed as increase in cleaved caspase-3 treated at 5 mg/kg, iv every other day for 26 days. It counts as functional, organism-based. To be noted: time 26.0 day.
Series [15] relates to MCF7. Kind of series: In vivo antitumor activity against human MCF7 cells xenografted in BALB/c mouse assessed as decrease in tumor volume treated at 10 mg/kg, iv every other day for 26 days relative to control. It counts as functional. To be noted: MCF7, 624 h, time 26 day.
Series [16] can be described thus: Toxicity in BALB/c mouse xenografted with human MCF7 cells assessed as lesions in heart at 10 mg/kg, iv every other day for 26 days by H and E staining based assay. It counts as organism-based. To be noted: in vivo, 624 h, time 26 day.
The nature of series [17]: Toxicity in BALB/c mouse xenografted with human MCF7 cells assessed as lesions in liver at 10 mg/kg, iv every other day for 26 days by H and E staining based assay. It counts as organism-based. Conditions: in vivo, 624 h, time 26 day.
A short description of series [18]: Toxicity in BALB/c mouse xenografted with human MCF7 cells assessed as lesions in spleen at 10 mg/kg, iv every other day for 26 days by H and E staining based assay. The class given is organism-based. Conditions: in vivo, 624 h, time 26 day.
Series [19] in a line: Toxicity in BALB/c mouse xenografted with human MCF7 cells assessed as lesions in lung at 10 mg/kg, iv every other day for 26 days by H and E staining based assay. The class given is organism-based. To be noted: in vivo, 624 h, time 26 day.
A short description of series [20]: Toxicity in BALB/c mouse xenografted with human MCF7 cells assessed as lesions in kidney at 10 mg/kg, iv every other day for 26 days by H and E staining based assay. The class given is organism-based. Conditions: in vivo, 624 h, time 26 day.
Series [21] concerns MCF7. Kind of series: In vivo antitumor activity against human MCF7 cells xenografted in BALB/c mouse assessed as inhibition of Ki-67 expression treated at 10 mg/kg, iv every other day for 26 days. The class given is functional, organism-based. To be noted: time 26.0 day.
Series [22] concerns MCF7. In words: In vivo antitumor activity against human MCF7 cells xenografted in BALB/c mouse assessed as increase in cleaved caspase-3 treated at 10 mg/kg, iv every other day for 26 days. Conditions: time 26.0 day. It counts as functional, organism-based.

In the case of `COc1ccc(/C=C\c2cc(OC)c(OC)c(OC)c2)cc1OP(=O)([O-])[O-].[Na+].[Na+]` [FOSBRETABULIN DISODIUM], the inhibition in vivo at 50 mg/kg in the series on HepG2 stood at 72%; in the series with MCF7 [2], 77%. Further, the Activity result in series [1] is recorded as “Non-Toxic”. Further, the IC50 was found to be 3.66 nM with MDA-MB-231; 5.26 nM in the series on MIA PaCa-2; 0.29 nM in the series with NCI-H460; 0.66 nM with KB; 140 nM in the series with L02. For the same compound, the result in the series with MCF7 [3] and with MCF7 [4] was Active.

In the case of `COc1cc(NS(=O)(=O)c2ccc3c(c2)c2ccc(NC(=O)[C@@H](N)C(C)C)cc2n3C)c(OC)cc1Cl.Cl`, the IC50 in the series on MDA-MB-231 came to 102 nM; in the series with MIA PaCa-2, 72.1 nM; with NCI-H460 it was 41.6 nM; with KB it was 23 nM; in the series on L02, 43.2 nM. In addition, the TGI result in the series with MCF7 [5] is “Dose-Dependent Effect”. The inhibition in vivo at 2.5 mg/kg in the series with MCF7 [6] is 38%. Moreover, the inhibition in vivo at 5 mg/kg with MCF7 [7] came out at 66%. The Activity entry in [8], in series [9], in series [10], in [11] and in [12] was “Non-Toxic” in each case. Also, the outcome in the series on MCF7 [13] and in the series with MCF7 [14] was Active.

In the case of `COc1cc(NS(=O)(=O)c2ccc3c(c2)c2ccc(OP(=O)([O-])[O-])cc2n3C)c(OC)cc1Cl.[Na+].[Na+]`, the concentration for half-maximal inhibition (IC50) in the series on MDA-MB-231 stood at 5.72 nM; in the series on MIA PaCa-2, 14.4 nM; with NCI-H460, 18.5 nM; in the series on KB it was 36.1 nM; in the series on L02, 55.3 nM. In addition, in the series with MCF7 [5], the TGI entry was “Dose-Dependent Effect”. In addition, the inhibition in vivo at 5 mg/kg in the series with MCF7 [7] worked out at 56%. Moreover, the inhibition in vivo at 10 mg/kg with MCF7 [15] turned out to be 73%. For the same compound, the Activity entry in series [16], in [17], in [18], in series [19] and in series [20] was “Non-Toxic” in each case. In addition, the outcome in the series on MCF7 [21] and with MCF7 [22] was Active.
